Consider 27 compounds from patent US8362249B2, “CXCR3 receptor antagonists” (Boehringer Ingelheim International GmbH, priority 2009, dated 2013).

Sequence of CXCR3 (A0A2K5UV19 entry or part of it): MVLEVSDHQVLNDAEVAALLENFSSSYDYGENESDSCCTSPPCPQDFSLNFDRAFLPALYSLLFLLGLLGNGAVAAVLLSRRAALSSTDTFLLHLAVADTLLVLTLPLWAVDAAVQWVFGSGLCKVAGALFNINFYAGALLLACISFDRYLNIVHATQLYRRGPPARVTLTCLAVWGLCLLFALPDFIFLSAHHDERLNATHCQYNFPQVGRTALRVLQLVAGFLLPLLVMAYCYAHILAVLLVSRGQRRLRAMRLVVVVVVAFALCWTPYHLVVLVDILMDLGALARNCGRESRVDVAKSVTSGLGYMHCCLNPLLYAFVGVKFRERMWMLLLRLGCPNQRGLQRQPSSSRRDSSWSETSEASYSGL

The assay addresses CXCR3 (Macaca fascicularis, UniProt A0A2K5UV19). Kind of assay: functional cellular assay measuring calcium flux in CXCR3 transfected cells (block of CXCR3/IP-10 interaction). It counts as cell-based. To be noted: IP-10 induced intracellular calcium flux; Cyno-CHO cells stably expressing recombinant CXCR3 and G-alpha-16. The gist of the method:
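Cyno-CHO cells stably co-expressing recombinant CXCR3 and G-alpha-16, loaded with Ca-4 dye (HBSS, 10 mM HEPES pH 7.4, 2 mM probenecid) for 1 h at 37 °C. Compound (10 microM final) preincubated 15 min at room temperature, then IP-10 added at EC80. Intracellular calcium flux read by fluorescence (ex 480/em 540 nm).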
A general note: A change in cytosolic calcium serves as a functional read-out for many receptors and channels.
Take `Cc1cc(C)n(CC(=O)N2CCN(c3ccccc3C(=O)Nc3ccc(Br)nc3)CC2)n1` [N-(6-Bromo-pyridin-3-yl)-2-{4-[2-(3,5-dimethyl-pyrazol-1-yl)-acetyl]-piperazin-1-yl}-benzamide]: the IC50 was 8.5 nM.

With `COc1cc(NC(=O)c2ccccc2N2CCN(C(=O)Cn3nc(C)cc3C)CC2)ccn1` [2-{4-[2-(3,5-Dimethyl-pyrazol-1-yl)-acetyl]-piperazin-1-yl}-N-(2-methoxy-pyridin-4-yl)-benzamide], the half-inhibitory concentration (IC50) stood at 8.5 nM.

As for `Cc1cc(C)n(CC(=O)N2CCN(c3ccccc3C(=O)Nc3cc(C(F)(F)F)no3)CC2)n1` [2-{4-[2-(3,5-Dimethyl-pyrazol-1-yl)-acetyl]-piperazin-1-yl}-N-(3-trifluoromethyl-isoxazol-5-yl)-benzamide], the IC50 stood at 5.1 nM.

Regarding `O=C(NCC(=O)N1CCN(c2ccccc2C(=O)Nc2cccnc2)CC1)c1ccc(OC(F)F)cc1` [4-Difluormethoxy-N-(2-oxo-2-{4-[2-(pyridin-3-ylcarbamoyl)-phenyl]-piperazin-1-yl}-ethyl)-benzamide], the concentration for half-maximal inhibition (IC50) is 18.3 nM.

`O=C(Nc1ccncc1)c1ccccc1N1CCN(C(=O)Cc2coc3ccccc23)CC1` [2-[4-(2-Benzofuran-3-yl-acetyl)-piperazin-1-yl]-N-pyridin-4-yl-benzamide]: the concentration for half-maximal inhibition (IC50) worked out at 10.3 nM.

With `O=C(Nc1cc(Cl)cnc1N1CCN(C(=O)Cn2ccc3cccnc32)CC1)c1cccc(C(F)(F)F)c1` [N-{5-Chloro-2-[4-(2-pyrrolo[2,3-b]pyridin-1-yl-acetyl)-piperazin-1-yl]-pyridin-3-yl}-3-trifluoromethyl-benzamide], the IC50 is 8.9 nM.

In the case of `Cc1cc(C)n(CC(=O)N2CCN(c3ccccc3NC(=O)c3ccncc3)CC2)n1` [N-(2-{4-[2-(3,5-Dimethyl-pyrazol-1-yl)-acetyl]-piperazin-1-yl}-phenyl)-isonicotinamide], the IC50 worked out at 7.6 nM.

For `O=C(Nc1ccncc1)c1ccccc1N1CCN(C(=O)Cc2n[nH]c3ccccc23)CC1` [2-[4-(2-1H-Indazol-3-yl-acetyl)-piperazin-1-yl]-N-pyridin-4-yl-benzamide], the IC50 worked out at 7.2 nM.

Turning to `CS(=O)(=O)c1ccc(NC(=O)c2ccccc2N2CCN(C(=O)Cn3c(C(=O)O)cc4cc(Cl)ccc43)CC2)cc1` [5-Chloro-1-(2-{4-[2-(4-methanesulfonyl-phenylcarbamoyl)-phenyl]-piperazin-1-yl}-2-oxo-ethyl)-1-H-indole-2-carboxylic acid], the IC50 was 25 nM.

As for `Cc1cc(C)n(CC(=O)N2CCN(c3ccccc3C(=O)Nc3cc(C4CCCCC4)no3)CC2)n1` [N-(3-Cyclohexyl-isoxazol-5-yl)-2-{4-[2-(3,5-dimethyl-pyrazol-1-yl)-acetyl]-piperazin-1-yl}-benzamide], the concentration for half-maximal inhibition (IC50) amounted to 8.3 nM.

Turning to `O=C(Nc1ccncc1)c1ccccc1N1CCN(C(=O)Cn2ncc3ccccc3c2=O)CC1` [2-{4-[2-(1-Oxo-1H-phthalazin-2-yl)-acetyl]-piperazin-1-yl}-N-pyridin-4-yl-benzamide], the IC50 is 6.1 nM.

For `Cc1cc(C)n(CC(=O)N2CCN(c3ccccc3C(=O)Nc3ccc(C(F)(F)F)nc3)CC2)n1` [2-{4-[2-(3,5-Dimethyl-pyrazol-1-yl)-acetyl]-piperazin-1-yl}-N-(6-trifluoromethyl-pyridin-3-yl)-benzamide], the IC50 is 11 nM.

Take `O=C(Nc1ccc(C(F)(F)F)nc1)c1ccccc1N1CCN(C(=O)CN2CCCCC2=O)CC1` [2-{4-[2-(2-Oxo-piperidin-1-yl)-acetyl]-piperazin-1-yl}-N-(6-trifluoromethyl-pyridin-3-yl)-benzamide]: the concentration for half-maximal inhibition (IC50) was found to be 3 nM.

Turning to `O=C(Nc1ccncc1)c1ccccc1N1CCN(C(=O)CN2C(=O)c3ccccc3S2(=O)=O)CC1` [N-Pyridin-4-yl-2-{4-[2-(1,1,3-trioxo-1,3-dihydro-1l6-benzo[d]isothiazol-2-yl)-acetyl]-piperazin-1-yl}-benzamide], the IC50 was 6.6 nM.

`Cc1cc(C)n(CC(=O)N2CCN(c3ccccc3C(=O)Nc3ncc(C)s3)CC2)n1` [2-{4-[2-(3,5-Dimethyl-pyrazol-1-yl)-acetyl]-piperazin-1-yl}-N-(5-methyl-thiazol-2-yl)-benzamide]: the concentration for half-maximal inhibition (IC50) turned out to be 7.3 nM.

With `Cc1csc(NC(=O)c2ccccc2N2CCN(C(=O)Cn3nc(C)cc3C)CC2)n1` [2-{4-[2-(3,5-Dimethyl-pyrazol-1-yl)-acetyl]-piperazin-1-yl}-N-(4-methyl-thiazol-2-yl)-benzamide], the IC50 was 12 nM.

Take `Cc1cc(C)n(CC(=O)N2CCN(c3ccccc3C(=O)Nc3cccc(C#N)c3)CC2)n1` [N-(3-Cyano-phenyl)-2-{4-[2-(3,5-dimethyl-pyrazol-1-yl)-acetyl]-piperazin-1-yl}-benzamide]: the IC50 was 4.5 nM.

`COc1cccc(C(=O)NCC(=O)N2CCN(c3ccccc3C(=O)Nc3cccnc3)CC2)c1OC` [2,3-Dimethoxy-N-(2-oxo-2-{4-[2-(pyridin-3-ylcarbamoyl)-phenyl]-piperazin-1-yl}-ethyl)-benzamide]: the IC50 came out at 12.5 nM.

Consider `Cc1cc(C)n(CC(=O)N2CCN(c3ccccc3C(=O)Nc3ccnc(C(F)(F)F)c3)CC2)n1` [2-{4-[2-(3,5-Dimethyl-pyrazol-1-yl)-acetyl]-piperazin-1-yl}-N-(2-trifluoromethyl-pyridin-4-yl)-benzamide], for which the IC50 turned out to be 12 nM.

With `Cc1cc(C)n(CC(=O)N2CCN(c3ccccc3NC(=O)c3cccc(C(F)(F)F)c3)CC2)n1` [N-(2-{4-[2-(3,5-Dimethyl-pyrazol-1-yl)-acetyl]-piperazin-1-yl}-phenyl)-3-trifluoromethyl-benzamide], the IC50 came to 7.4 nM.

Take `Cc1cc(C)n(CC(=O)N2CCN(c3ccccc3C(=O)Nc3ccnc(N4CCN(C)CC4)c3)CC2)n1` [2-{4-[2-(3,5-Dimethyl-pyrazol-1-yl)-acetyl]-piperazin-1-yl}-N-[2-(4-methyl-piperazin-1-yl)-pyridin-4-yl]-benzamide]: the IC50 was 14 nM.

Regarding `COc1ccc(C(=O)NCC(=O)N2CCN(c3ccccc3C(=O)Nc3ccncc3)CC2)cc1` [4-Methoxy-N-(2-oxo-2-{4-[2-(pyridin-4-ylcarbamoyl)-phenyl]-piperazin-1-yl}-ethyl)-benzamide], the 50% inhibitory concentration (IC50) stood at 3.4 nM.

For `COc1ccc(C(=O)NCC(=O)N2CCN(c3ccccc3C(=O)Nc3cccnc3)CC2)cc1` [4-Methoxy-N-(2-oxo-2-{4-[2-(pyridin-3-ylcarbamoyl)-phenyl]-piperazin-1-yl}-ethyl)-benzamide], the half-maximal inhibitory concentration (IC50) was 16 nM.

In the case of `Cc1cc(C)n(CC(=O)N2CCN(c3ccccc3C(=O)Nc3ccc(C(F)(F)F)cc3)CC2)n1` [2-{4-[2-(3,5-Dimethyl-pyrazol-1-yl)-acetyl]-piperazin-1-yl}-N-(4-trifluoromethyl-phenyl)-benzamide], the IC50 turned out to be 4.2 nM.

For the compound `COc1ccc(C(=O)NCC(=O)N2CCN(c3ccccc3C(=O)Nc3ccccc3)CC2)cc1OC` [3,4-Dimethoxy-N-{2-oxo-2-[4-(2-phenylcarbamoyl-phenyl)-piperazin-1-yl]-ethyl}-benzamide], the 50% inhibitory concentration (IC50) amounted to 8.1 nM.

As to `Cc1nn(C)c(C)c1CC(=O)N1CCN(c2ccccc2C(=O)Nc2ccncc2)CC1` [N-Pyridin-4-yl-2-{4-[2-(1,3,5-trimethyl-1H-pyrazol-4-yl)-acetyl]-piperazin-1-yl}-benzamide], the IC50 is 19.5 nM.

On to `Cc1cc(C)n(CC(=O)N2CCN(c3ccccc3C(=O)Nc3nc4c(s3)CCCC4)CC2)n1` [2-{4-[2-(3,5-Dimethyl-pyrazol-1-yl)-acetyl]-piperazin-1-yl}-N-(4,5,6,7-tetrahydro-benzothiazol-2-yl)-benzamide], for which the concentration for half-maximal inhibition (IC50) was found to be 12 nM.

One may read the IC50 as the concentration at which inhibition is half-maximal.
